In patent US11124479B2, “Oligopyrroles as antagonists of islet amyloid polypeptide oligomerization” (New York University, priority 2017, dated 2021):
Values belong to the compound of their own block, whether it stands above or below them.

Assays:
Partition coefficient = type: physicochemical
[1] = target: T1, islet amyloid polypeptide (IAPP) (Homo sapiens, UniProt P10997); experiment: ThT-based kinetic assay of IAPP fibrillation; type: biochemical; conditions: for relative t50 of IAPP fibrillation versus control reaction / inhibition of IAPP fibrillation (in words): 15 μM IAPP, equimolar ratio; for inhibition capacity towards IAPP fibrillation (in words): ThT assays under our conditions; for inhibition of IAPP fibrillation (in words): FIG. 2C
T1 construct: IAPP is a 37 residue neuropancreatic hormone peptide; purchased Anaspec (Fremont, Calif.)
T1 sequence (P10997 34-70 limits assumed): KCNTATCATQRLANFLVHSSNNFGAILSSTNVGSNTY
Source text: The aggregation kinetics of IAPP was probed using an exogenous reporter, Thioflavin T (ThT), which quantifies the amount of fibers in solution without perturbing the aggregation kinetics of IAPP (see Wolfe, L. S.; Calabrese, M. F.; Nath, A.; Blaho, D. V.; Miranker, A. D.; Xiong, Y. Proc. Natl. Acad. Sci. U.S.A. 2010, 107, 16863-16868; Levine, H. Protein Sci. 1993, 2, 404-410). […] The kinetics of IAPP fibrillation was quantified using the reaction midpoint, t50, which is the time required to reach 50% fluorescence in the fibrillation reaction (FIG. 8).
Kinetic assays were conducted on a FlexStation 3 Multi-Mode Microplate reader from Molecular Devices (Sunnyvale, Calif.). Experiments were conducted in triplicate in a 96-well plate with a final volume of 200 μL per well. Every measurement was an average of 50 readings. The aggregation of IAPP was initiated by its addition from a stock solution (1 mM in DMSO) to phosphate buffer. The stoichiometry ratio for ThT to IAPP was 0.5:1. Peptide aggregation was monitored by ThT fluorescence (λex=445 nm and λem=485 nm). The blank sample contained all the components of the peptide samples except peptide. The sample data were processed by subtracting the blank and renormalizing the fluorescence intensity by setting the maximum value to 1.
Kinetic assays in the presence of the compounds of the invention were conducted under the same conditions. Small molecules were added from a stock solution (1 mM or 10 mM in DMSO) to keep the final concentration of DMSO less than 1.0% (v/v). Small molecules were added to the wells with ThT and buffer and mixed gently with a pipette before adding IAPP. To keep the conditions identical, an equal amount of DMSO was added to the wells with IAPP only reactions. For the aggregation kinetics of Aβ42, the peptide was dissolved in 1N NaOH (0.5-1 mM) and vortexed for 2 min. to ensure the complete solubility. The aggregation of 3 μM Aβ42 was initiated by addition of peptide from a stock solution (in 1 N NaOH, 0.5-1 mM) to phosphate buffer.
Kinetic profiles were processed using Origin (version 9.1). Kinetic curves were fit using the built-in sigmoidal fit. Each run was fit independently to extract the t50 (time required to reach 50% of the maximum fluorescence intensity). Error bars represent standard deviations from the mean of at least three independent experiments.
The membrane model system selected for the amyloid assays is a mixture of DOPG (dioleoylphosphatidylglycerol) and DOPC (dioleoylphosphatidylcholine) at 3:7 molar ratio, which mimics physiological conditions (Ono, K.; Condron, M. M.; Teplow, D. B. Proc. Natl. Acad. Sci. U.S.A. 2009, 106, 14745-14750). The lipid catalyzed aggregation of IAPP was initiated by adding freshly prepared 15 μM IAPP (1 mM stock solution in DMSO) to the phosphate buffer (50 mM NaPi, 150 mM KCl, pH 7.4) containing 15 μM ThT and 750 μM of unilamellar liposomes (LUVs, DOPG:DOPC, 3:7, d=100 nm).

[2] = target: T2, IAPP-induced lipid membrane leakage (Homo sapiens, UniProt P10997); experiment: Fluorescein-based liposome leakage assay; type: biochemical; conditions: 4 μM IAPP, equimolar ratio
T2 construct: IAPP is a 37 residue neuropancreatic hormone peptide; purchased Anaspec (Fremont, Calif.)
T2 sequence (P10997 34-70 limits assumed): T1 sequence (P10997 34-70 limits assumed)
Source text: Colocalization of IAPP at the mitochondrial membrane and the subsequent membrane poration is considered to be one of the potential contributors to β-cell toxicity. Therefore, a liposome leakage assay could serve as a surrogate marker for IAPP induced cytotoxicity (see Last, N. B.; Miranker, A. D. Proc. Natl. Acad. Sci. U.S.A. 2013, 110, 6382-6387; and Last, N. B.; Rhoades, E.; Miranker, A. D. Proc. Natl. Acad. Sci. U.S.A. 2011, 108, 9460-9465). A previously reported fluorescein-based liposome leakage assay was employed to test the effect of ADH-101 on membrane associated α-helical intermediates of IAPP. Briefly, fluorescein-dextran conjugate (MW=70 kDa) was encapsulated in unilamaller extruded lipid vesicles (DOPG:DOPC, 3:7, d=100 nm). The size of fluorescein-dextran conjugate allows it to stay inside the lipid vesicles during IAPP mediated membrane poration. The leakage kinetics was probed by the quenching of fluorescence using a fluorescent quencher, DPX (p-xylene-bis-pyridinium […]). The kinetic profiles of leakage are single exponential with a decrease in fluorescence as a function of time. The leakage reaction was initiated by introducing 200 μM liposome into a solution of 4 μM IAPP and 6 mM of DPX. The introduction of the excess ionic concentration by DPX was counterbalanced by adjusting the buffer concentration. The kinetics of the leakage mediated by IAPP yielded a single exponential profile with a leakage rate of 7.3±1.1×10^−3 s^−1 (FIG. 5A).
The kinetics of liposome leakage induced by IAPP was monitored on QuantaMaster C-61 fluorescence spectrometer (Photon Technology International, Edison, N.J.) at 25° C. […] The stock solution of IAPP used in the measurements was kept in water at a concentration of 1 mM. The stock solution of water soluble quencher, DPX (p-xylene-bis-pyridinium bromide) was prepared in buffer (100 mM KCl, 50 mM NaPi, pH 7.4) at a concentration of 100 mM. The small molecules used in the leakage assay were dissolved in DMSO with a concentration range of 10-20 mM. The final concentration of dye encapsulating liposome, DPX, human IAPP, and small molecules were 200, 6000, 4, and 4 μM respectively. The final buffer concentration was corrected using higher concentration of buffer to keep the osmolality balanced. […] To determine the leakage rate constant, first the fluorescence was normalized and corrected by subtracting it from normalized fluorescence of control reaction. The corrected fluorescence was fit using equation given below (using Origin 9.1). All the experiments were performed in triplicate and the error values presented are standard deviations. a*exp(−b*x)+c (2) a=amplitude from 100% unleaked to 0% leaked c=final fraction of unleaked liposome y=change in fluorescence b=leakage rate constant

[3] = lipid catalyzed (750 μM LUVs, DOPG:DOPC 3:7)

logP (Partition coefficient): -0.8 | relative t50 of IAPP fibrillation versus control reaction [1, 3]: 1.9 fold
Structure (SMILES): COC(=O)c1ccc(NC(=O)c2ccc(NC(=O)c3ccc([N+](=O)[O-])c(OCC(=O)O)n3)c(OCC(C)C)n2)c(OCC(=O)O)n1 [ADM-11, reference compound]

inhibition of IAPP fibrillation (in words) [1]: ineffective
Structure (SMILES): CCOC(=O)c1cc([N+](=O)[O-])cn1CC(C)C [ADH-113]

antagonist of oligomerization, fibrillation, and/or aggregation of IAPP (in words) [1]: effective antagonist
Structure (SMILES): CCOC(=O)c1cc(NC(=O)c2cc(NC(=O)c3cc([N+](=O)[O-])cn3CCCc3ccccc3)cn2CC(C)C)cn1CCC(=O)O [ADH-120]

relative t50 of IAPP fibrillation versus control reaction ([1]; de novo / lipid free): 2.6 fold | relative t50 of IAPP fibrillation versus control reaction [1, 3]: 1.5 fold
Structure (SMILES): CCOC(=O)c1cc(NC(=O)c2cc(NC(=O)c3cc([N+](=O)[O-])cn3CC(C)C)cn2CC(C)C)cn1CC(C)C [ADH-105]

relative t50 of IAPP fibrillation versus control reaction [1, 3]: 1.4 fold
Structure (SMILES): COC(=O)c1ccc(NC(=O)c2ccc(NC(=O)c3ccc([N+](=O)[O-])c(OCC(=O)O)n3)c(OCC(C)C)n2)c(OCC(C)C)n1 [ADH-201, reference compound]

inhibition of IAPP fibrillation (in words) [1]: ineffective
Structure (SMILES): CCOC(=O)c1cc([N+](=O)[O-])cn1CCC(=O)O [ADH-117]

Second part, the compound before the results:

Structure (SMILES): O=C(O[C@@H]1Cc2c(O)cc(O)cc2O[C@@H]1c1cc(O)c(O)c(O)c1)c1cc(O)c(O)c(O)c1 [EGCG, reference compound]
inhibition capacity towards IAPP fibrillation (in words) [1]: moderate inhibition capacity | effect on IAPP induced liposome leakage (in words) [2]: unable to effect

Structure (SMILES): COc1cc(/C=C/C(=O)CC(=O)/C=C/c2ccc(O)c(OC)c2)ccc1O [Curcumin]
inhibition capacity towards IAPP fibrillation (in words) [1]: moderate inhibition capacity

Structure (SMILES): CC1=C/C(=C(\c2ccc(N)c(S(=O)(=O)[O-])c2)c2ccc(N)c(S(=O)(=O)O)c2)C=C(S(=O)(=O)[O-])C1=N.[Na+].[Na+] [AF, Acid fuchsin, reference compound]
inhibition capacity towards IAPP fibrillation (in words) [1]: moderate inhibition capacity | effect on IAPP induced liposome leakage (in words) [2]: unable to effect
